Laboratory results from patent US20070287727A1, “Anti-Nicotine Treatment” (priority 2006, published 2007).

Columns and labels:
heavy smokers = assay: Treatment of heavy smokers using anticholinergic therapy; type: in vivo, human; conditions: heavy smokers unable to visit for a booster
Text: Some individuals were characterized as heavy smokers and smoked 20 or more cigarettes per day. […] All of these patients received normal supportive treatment by sedative drugs and counseling on coping with and adjusting to addiction.
Booster injections were offered to all patients.

[1] = intramuscular or intravenous injection; cited from earlier work
monkeys = conditions: cited from earlier work
[2] = test system: superior cervical ganglia; conditions: cited from earlier work

In the case of CN1[C@@H]2CC[C@H]1C[C@@H](OC(c1ccccc1)c1ccccc1)C2 [benztropine, 8-azabicyclo [3.2.1]octane, 3-(diphenylmethoxy)-, endo, methanesulfonate], the patient-reported well-being (heavy smokers; a few weeks after treatment) is given as “feeling well”, the “relapse to smoke again” value (heavy smokers; given during the 5 days after the first injection) is given as “no immediate or short term relapse” and the onset of action [1] is given as “within minutes”.
For C[C@H](N)Cc1ccccc1 [d-amphetamine], the “effect on smoking (puffing pattern)” value (monkeys) is listed as “decreased smoking”.
In the case of CN1CCCC1c1cccnc1 (stereo not shown) [nicotine], the acetylcholinesterase ([2]; after withdrawal of nicotine) is given as “about 117 % of controls” and the acetylcholine increase ([2]; chronic nicotine treatment) is given as “about 35%”.
In the case of CN1[C@@H]2C[C@@H](OC(=O)[C@H](CO)c3ccccc3)C[C@H]1[C@@H]1O[C@@H]12 [scopolamine], the “effect on smoking (puffing pattern)” value (monkeys) is given as “decreased smoking”.
